Reference: patent publication US9085576B2 (AMGEN INC., priority 2013, dated 2015)
pIC50: −log10 of the molar value. Where a name gives a salt, the structure may show the parent alone.

What follows are molecules tested against Cathepsin D (Cat D) (Homo sapiens (Human), UniProt P07339) (assay: In vitro enzymatic Cathepsin D (Cat D) FRET assay). Details: read-out: CatD IC50.
Type: biochemical

Cathepsin D (Cat D), sequence (P07339 65-412, species assumed): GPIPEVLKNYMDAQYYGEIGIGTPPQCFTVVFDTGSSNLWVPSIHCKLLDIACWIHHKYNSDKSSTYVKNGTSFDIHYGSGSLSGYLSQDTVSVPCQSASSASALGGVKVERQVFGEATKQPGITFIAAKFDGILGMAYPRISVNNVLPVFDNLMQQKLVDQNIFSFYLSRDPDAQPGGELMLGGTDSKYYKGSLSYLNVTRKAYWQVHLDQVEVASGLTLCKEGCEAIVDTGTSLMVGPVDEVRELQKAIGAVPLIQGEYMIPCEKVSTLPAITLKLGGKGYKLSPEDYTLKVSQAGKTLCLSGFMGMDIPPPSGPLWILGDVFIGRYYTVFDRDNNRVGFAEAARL

Compound | pIC50
Cc1cc(OCC#CC(C)(C)O)cnc1C(=O)Nc1ccc(F)c(C2(C)N=C(N)O[C@H]3C[C@H]32)c1 (mixture of isomers) [Example 29, N-(3-([1(R,S),5(S,R),6(R,S)]-3-amino-5-methyl-2-oxa-4-azabicyclo[4.1.0]hept-3-en-5-yl)-4-fluorophenyl)-5-((4-hydroxy-4-methylpent-2-yn-1-yl)oxy)-3-methylpicolinamide] | 3.33
Cc1cc(NC(=O)c2ccc(Cl)cn2)cc([C@@]2(C(F)F)N=C(N)O[C@@H]3C[C@@H]32)c1F (racemic) [Example 30, N-(3-([(1R,S),(5S,R),(6R,S)]-3-amino-5-(difluoromethyl)-2-oxa-4-azabicyclo[4.1.0]hept-3-en-5-yl)-4-fluoro-5-methylphenyl)-5-chloropicolinamide] | 3.33
N#Cc1cnc(C(=O)Nc2ccc(F)c([C@]3(C(F)F)N=C(N)O[C@H]4C[C@H]43)c2)c(Cl)c1 (racemic) [Example 62, N-(3-([1(R,S),5(S,R),6(R,S)]-3-amino-5-(difluoromethyl)-2-oxa-4-azabicyclo[4.1.0]hept-3-en-5-yl)-4-fluorophenyl)-3-chloro-5-cyanopicolinamide] | 2.96
N#Cc1ccc(C(=O)Nc2cnc(F)c([C@]3(C(F)F)N=C(N)O[C@H]4C[C@H]43)c2)nc1 (racemic) [Example 75, N-(5-([1(R,S),5(S,R),6(R,S)]-3-amino-5-(difluoromethyl)-2-oxa-4-azabicyclo[4.1.0]hept-3-en-5-yl)-6-fluoropyridin-3-yl)-5-cyanopicolinamide] | 3.46
N#Cc1ccc(C(=O)Nc2ccc(Cl)c([C@@]3(C(F)F)N=C(N)O[C@@H]4C[C@@H]43)c2)nc1 (racemic) [Example 98, N-(3-(((1R,S), (5S,R), (6R,S))-3-amino-5-(difluoromethyl)-2-oxa-4-azabicyclo[4.1.0]hept-3-en-5-yl)-4-chlorophenyl)-5-cyanopicolinamide trifluoroacetate] | 2.94
N#Cc1ccc(C(=O)Nc2cc(F)c(F)c([C@@]3(C(F)F)N=C(N)O[C@@H]4C[C@@H]43)c2)nc1 (stereo in doubt) [Example 109, N-(3-((1R,5S,6R)-3-amino-5-(difluoromethyl)-2-oxa-4-azabicyclo[4.1.0]hept-3-en-5-yl)-4,5-difluorophenyl)-5-cyanopicolinamide] | < 3.40
N#Cc1ccc(C(=O)Nc2cc(F)c(F)c([C@]3(CF)N=C(N)O[C@H]4C[C@H]43)c2)nc1 [Example 38, N-(3-((1S,55,6S) 3-amino-5-(fluoromethyl)-2-oxa-4-azabicyclo[4.1.0]hept-3-en-5-yl)-4,5-difluorophenyl)-5-cyanopicolinamide] | 2.58
COc1ccc(C(=O)Nc2cc(F)c(F)c([C@@]3(CF)N=C(N)O[C@@H]4C[C@@H]43)c2)nc1 [Example 41, N-(3-((1R,5S,6R)-3-amino-5-(fluoromethyl)-2-oxa-4-azabicyclo[4.1.0]hept-3-en-5-yl)-4,5-difluorophenyl)-5-methoxypicolinamide] | 3.62
COCc1cc(Cl)cnc1C(=O)Nc1ccc(F)c([C@@]2(C(F)F)N=C(N)O[C@@H]3C[C@@H]32)c1 [Example 42, N-(3-((1R,5S,6R)-3-amino-5-(difluoromethyl)-2-oxa-4-azabicyclo[4.1.0]hept-3-en-5-yl)-4-fluorophenyl)-5-chloro-3-(methoxymethyl) picolinamide] | 3.13
N#Cc1ccc(C(=O)Nc2ccc(F)c([C@]3(C(F)F)N=C(N)O[C@H]4C[C@H]43)c2)nc1 [Example 65, N-(3-((1S,5R,6S)-3-amino-5-(difluoromethyl)-2-oxa-4-azabicyclo[4.1.0]hept-3-en-5-yl)-4-fluorophenyl)-5-cyanopicolinamide] | < 3.40
N#Cc1cnc(C(=O)Nc2ccc(F)c([C@]3(C(F)F)N=C(N)O[C@H]4C[C@H]43)c2)c(Cl)c1 [Example 67, N-(3-((1S,5R,6S)-3-amino-5-(difluoromethyl)-2-oxa-4-azabicyclo[4.1.0]hept-3-en-5-yl)-4-fluorophenyl)-3-chloro-5-cyanopicolinamide] | 2.89
N#Cc1ccc(C(=O)Nc2ccc(Cl)c([C@]3(C(F)F)N=C(N)O[C@H]4C[C@H]43)c2)nc1 [Example 94, N-(3-((1S,5R,6S)-3-amino-5-(difluoromethyl)-2-oxa-4-azabicyclo[4.1.0]hept-3-en-5-yl)-4-chlorophenyl)-5-cyanopicolinamide] | 2.72
COc1cnc(C(=O)Nc2cc(F)c(F)c([C@@]3(C(F)F)N=C(N)O[C@@H]4C[C@@H]43)c2)cn1 [Example 112, N-(3-((1R,5S,6R)-3-amino-5-(difluoromethyl)-2-oxa-4-azabicyclo[4.1.0]hept-3-en-5-yl)-4,5-difluorophenyl)-5-methoxypyrazine-2-carboxamide] | 2.38
N#Cc1ccc(C(=O)Nc2cc(F)c(F)c([C@@]3(C(F)F)N=C(N)O[C@@H]4C[C@@H]43)c2)nc1 [Example 113, N-(3-((1R,5S,6R)-3-amino-5-(difluoromethyl)-2-oxa-4-azabicyclo[4.1.0]hept-3-en-5-yl)-4,5-difluorophenyl)-5-cyanopicolinamide] | < 3.21
NC1=N[C@@](c2cc(NC(=O)c3ccc(Br)cn3)cc(F)c2F)(C(F)F)[C@H]2C[C@H]2O1 [Example 116, N-(3-((1R,5S,6R)-3-amino-5-(difluoromethyl)-2-oxa-4-azabicyclo[4.1.0]hept-3-en-5-yl)-4,5-difluorophenyl)-5-bromopicolinamide] | 4.09
Cc1cc(NC(=O)c2ccc(Cl)cn2)cc([C@@]2(C(F)F)N=C(N)O[C@@H]3C[C@@H]32)c1F [Example 121, N-(3-((1R,5S,6R)-3-amino-5-(difluoromethyl)-2-oxa-4-azabicyclo[4.1.0]hept-3-en-5-yl)-4-fluoro-5-methylphenyl)-5-chloropicolinamide] | 3.69
Cc1cc(NC(=O)c2ccc(Cl)cn2)cc([C@@]2(C(F)F)N=C(N)O[C@@H]3C[C@@H]32)c1F [Example 123, N-(3-((1R,5S,6R)-3-amino-5-(difluoromethyl)-2-oxa-4-azabicyclo[4.1.0]hept-3-en-5-yl)-4-fluoro-5-methylphenyl)-5-chloropicolinamide] | 3.59
Cc1cc(NC(=O)c2ccc(Cl)cn2)cc([C@]2(C(F)F)N=C(N)O[C@H]3C[C@H]32)c1F [Example 124, N-(3-((1 S,5R,6S)-3-amino-5-(difluoromethyl)-2-oxa-4-azabicyclo[4.1.0]hept-3-en-5-yl)-4-fluoro-5-methylphenyl)-5-chloropicolinamide] | 2.91
COc1c(F)cc(NC(=O)c2ccc(Cl)cn2)cc1[C@@]1(CF)N=C(N)O[C@@H]2C[C@@H]21 [Example 145, N-(3-((1R,5S,6R)-3-amino-5-(fluoromethyl)-2-oxa-4-azabicyclo[4.1.0]hept-3-en-5-yl)-5-fluoro-4-methoxyphenyl)-5-chloropicolinamide] | 3.66
C#CCOc1ccc(C(=O)Nc2ccc(F)c([C@@]3(CF)N=C(N)O[C@@H]4C[C@@H]43)c2)nc1 [Example 205, N-(3-((1R,5S,6R)-3-amino-5-(fluoromethyl)-2-oxa-4-azabicyclo[4.1.0]hept-3-en-5-yl)-4-fluorophenyl)-5-(prop-2-yn-1-yloxy)picolinamide] | 3.09

More lines, in order of rising pIC50, values ahead:

pIC50 | Compound
3.05 | N#Cc1ccc(C(=O)Nc2ccc(F)c([C@]3(C(F)F)N=C(N)O[C@H]4C[C@H]43)c2)nc1 (racemic) [Example 59, N-(3-([1(R,S),5(S,R),6(R,S)]-3-amino-5-(difluoromethyl)-2-oxa-4-azabicyclo[4.1.0]hept-3-en-5-yl)-4-fluorophenyl)-5-cyanopicolinamide compound]
3.07 | C#C[C@@H](C)Oc1cnc(C(=O)Nc2ccc(F)c([C@@]3(C(F)F)N=C(N)O[C@@H]4C[C@@H]43)c2)cn1 [Example 148, N-(3-((1R,5S,6R)-3-amino-5-(difluoromethyl)-2-oxa-4-azabicyclo[4.1.0]hept-3-en-5-yl)-4-fluorophenyl)-5-((R)-but-3-yn-2-yloxy)pyrazine-2-carboxamide]
3.11 | COc1c(F)cc(NC(=O)c2ccc(Cl)cn2)cc1[C@]1(CF)N=C(N)O[C@H]2C[C@H]21 [Example 146, N-(3-((1S,5R,6S)-3-amino-5-(fluoromethyl)-2-oxa-4-azabicyclo[4.1.0]hept-3-en-5-yl)-5-fluoro-4-methoxyphenyl)-5-chloropicolinamide]
3.14 | Cc1cc(C#N)cnc1C(=O)Nc1cc(C)c(F)c([C@@]2(C(F)F)N=C(N)O[C@@H]3C[C@@H]32)c1 [Example 132, N-(3-((1R,5S,6R)-3-amino-5-(difluoromethyl)-2-oxa-4-azabicyclo[4.1.0]hept-3-en-5-yl)-4-fluoro-5-methylphenyl)-5-cyano-3-methylpicolinamide]
3.33 | NC1=N[C@](c2cc(NC(=O)c3ccc(Cl)cn3)cc(F)c2F)(C(F)F)[C@@H]2C[C@@H]2O1 [Example 108, N-(3-((1S,5R,6S)-3-amino-5-(difluoromethyl)-2-oxa-4-azabicyclo[4.1.0]hept-3-en-5-yl)-4,5-difluorophenyl)-5-chloropicolinamide]
3.44 | N#Cc1ccc(C(=O)Nc2cc(F)c(F)c([C@@]3(CF)N=C(N)O[C@@H]4C[C@@H]43)c2)nc1 [Example 37, N-(3-((1R,5S,6R)-3-amino-5-(fluoromethyl)-2-oxa-4-azabicyclo[4.1.0]hept-3-en-5-yl)-4,5-difluorophenyl)-5-cyanopicolinamide]
3.47 | COc1c(F)cc(NC(=O)c2ccc(Cl)cn2)cc1[C@@]1(CF)N=C(N)O[C@@H]2C[C@@H]21 (racemic) [Example 31, N-(3-([(1R,S),(5S,R),(6R,S)]-3-amino-5-(fluoromethyl)-2-oxa-4-azabicyclo[4.1.0]hept-3-en-5-yl)-5-fluoro-4-methoxyphenyl)-5-chloropicolinamide]
3.67 | NC1=N[C@@](c2cc(NC(=O)c3ccc(Cl)cn3)cc(F)c2F)(C(F)F)[C@H]2C[C@H]2O1 [Example 107, N-(3-((1R,5S,6R)-3-amino-5-(difluoromethyl)-2-oxa-4-azabicyclo[4.1.0]hept-3-en-5-yl)-4,5-difluorophenyl)-5-chloropicolinamide]
4.25 | NC1=N[C@@](c2cc(NC(=O)c3coc(CF)n3)ccc2F)(C(F)F)[C@H]2C[C@H]2O1 [Example 168, N-(3-((1R,5S,6R)-3-amino-5-(difluoromethyl)-2-oxa-4-azabicyclo[4.1.0]hept-3-en-5-yl)-4-fluorophenyl)-2-(fluoromethyl)oxazole-4-carboxamide]
